According to ChEMBL document CHEMBL1135919, “Synthesis of photoreactive phosphatidic acid analogues displaying activatory properties on cyclic AMP-phosphodiesterases. Photoaffinity labeling of an isoform of phosphodiesterase” (J Med Chem, 2002):

These molecules were tested against T1, 3',5'-cyclic-AMP phosphodiesterase 4D (Rattus norvegicus, UniProt P14270) (assay: Activation of PDE4D3 (phosphodiesterase).).
T1 sequence (P14270 whole entry): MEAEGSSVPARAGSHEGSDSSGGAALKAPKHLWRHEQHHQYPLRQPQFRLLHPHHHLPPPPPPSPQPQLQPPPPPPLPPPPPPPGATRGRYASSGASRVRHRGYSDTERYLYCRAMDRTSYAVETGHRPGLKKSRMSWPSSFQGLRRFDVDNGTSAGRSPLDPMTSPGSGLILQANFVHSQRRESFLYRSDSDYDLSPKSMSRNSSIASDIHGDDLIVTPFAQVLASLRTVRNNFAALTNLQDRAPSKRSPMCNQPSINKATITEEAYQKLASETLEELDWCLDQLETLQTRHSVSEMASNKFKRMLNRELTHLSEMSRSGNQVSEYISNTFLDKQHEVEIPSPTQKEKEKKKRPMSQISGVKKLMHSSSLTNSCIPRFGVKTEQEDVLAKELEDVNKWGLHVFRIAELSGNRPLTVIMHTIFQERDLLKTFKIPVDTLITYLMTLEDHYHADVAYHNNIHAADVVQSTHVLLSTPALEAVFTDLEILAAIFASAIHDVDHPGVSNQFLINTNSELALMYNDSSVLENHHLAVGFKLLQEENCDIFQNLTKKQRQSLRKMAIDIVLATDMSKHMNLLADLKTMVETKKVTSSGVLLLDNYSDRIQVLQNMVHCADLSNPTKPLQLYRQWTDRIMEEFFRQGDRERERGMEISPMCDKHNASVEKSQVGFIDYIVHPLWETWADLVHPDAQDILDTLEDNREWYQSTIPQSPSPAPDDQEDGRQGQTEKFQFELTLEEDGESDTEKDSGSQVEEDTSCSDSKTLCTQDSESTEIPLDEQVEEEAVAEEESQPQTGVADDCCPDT
Type: functional

EC50 [µM] | SMILES
23.5 | CCCCCCCC/C=C/CCCCCCCC(=O)OCC(COP(=O)(O)O)OC(=O)CCCCCCCCCCCNC(=O)c1c(F)c(F)c(N=[N+]=[N-])c(F)c1F (stereo not drawn)
24.2 | CCCCCCCCCCCCCCCC(=O)OCC(COP(=O)(O)O)OC(=O)CCCCCCCCCCCNC(=O)c1c(F)c(F)c(N=[N+]=[N-])c(F)c1F (stereo not drawn)
23.5 | CCCCCCCC/C=C/CCCCCCCC(=O)OC(COC(=O)CCCCCCCCCCCNC(=O)c1c(F)c(F)c(N=[N+]=[N-])c(F)c1F)COP(=O)(O)O (stereo not drawn)
